Here are results for 4 molecules from US6380239B1, “Substituted 1-oxo- and 1,3-dioxoisoindoline and method of reducing inflammatory cytokine levels” (Celgene Corporation, priority 1999, dated 2002).

Usually melting point stands for the temperature of the solid-liquid transition. Molecule `NC(=O)CCC(C(=O)O)N1C(=O)c2cccc(N)c2C1=O` (stereo not shown) [Example 18, 2-(4-Amino-1,3-dioxoisoindolin-2-yl)-4-carbamoylbutanoic acid] displayed a melting point of 165 to 167 °C.

In the case of `NC(=O)CCC(C(=O)O)N1C(=O)c2cccc([N+](=O)[O-])c2C1=O` (stereo not shown) [Example 17, 2-(4-Nitro-1,3-dioxoisoindolin-2-yl)-4-carbamoylbutanoic acid], the melting point fell in the range of 182 to 184 °C.

On to `Nc1cccc2c1C(=O)N(C(CCC(=O)O)C(=O)O)C2=O` (stereo not shown) [Example 16, 1-(4-Amino-1,3-dioxoisoindolin-2-yl)propane-1,3-dicarboxylic acid], for which the melting point fell in the range of 198 to 200 °C.

With `Nc1cccc2c1CN(C(CCC(=O)O)C(=O)O)C2=O` (stereo not shown) [Example 14, 1-(4-Amino-1-oxoisoindolin-2-yl)propane-1,3-dicarboxylic acid], the melting point lay within 183 to 185 °C.
